Data published in PMC5095285, “The fungal-specific β-glucan-binding lectin FGB1 alters cell-wall composition and suppresses glucan-triggered immunity in plants” (Nature Communications, 2016).

Molecular target: T1, FGB1 (Serendipita indica, UniProt G4TDB9)
T1 construct: gene PIIN_03211; native secreted mature protein purified from P. indica culture filtrate, signal peptide removed; precursor 104 residues; 6,219 Da, non-glycosylated, four disulfide bridges; no tag
Experiment: isothermal titration calorimetry (VP-ITC)
Format: binding
Details: in water, 20 °C; single-site model, N=0.854±0.243; printed error exceeds the value (likely exponent misprint); read-out: K (converted)
Source text: isothermal titration calorimetry (VP-ITC) on FGB1 | The titration of gentiobiose to FGB1 was fitted to a single-side-binding model

T1 sequence (G4TDB9 entry or part of it): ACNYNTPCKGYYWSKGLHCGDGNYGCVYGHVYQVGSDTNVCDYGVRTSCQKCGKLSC

- Kd: 11.4 µM
SMILES: OC[C@H]1O[C@@H](OC[C@H]2OC(O)[C@H](O)[C@@H](O)[C@@H]2O)[C@H](O)[C@@H](O)[C@@H]1O (stereo partly shown) [gentiobiose]
